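All cell lines were grown in 96-well plates and treated with compound for 48 hours. GI50: concentration for 50% inhibition of growth. TGI denotes the concentration required for complete inhibition of growth.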
Experiments:
Assay in all cases: inhibition of tumour cell growth, NCI panel, 48 h
[1] = test system: HT29 colon
[2] = test system: CAKI-1 renal
[3] = test system: SK-MEL-2 melanoma
[4] = test system: HS 578T breast
[5] = test system: K-562 leukemia
[6] = test system: SK-MEL-28 melanoma
[7] = test system: ACHN renal
[8] = test system: SNB-75 CNS
[9] = test system: A498 renal
[10] = test system: RPMI-8226 leukemia
[11] = test system: SF-295 CNS
[12] = test system: HCT-116 colon
[13] = test system: SR leukemia
[14] = test system: HCC-2998 colon
[15] = test system: BT-549 breast
[16] = test system: CCRF-CEM leukemia
[17] = test system: SW-620 colon
[18] = test system: NCI-H226 lung
[19] = test system: A549 NSCLC
[20] = test system: HCT-15 colon
[21] = test system: LOX IMVI melanoma
[22] = test system: SK-MEL-5 melanoma
[23] = test system: OVCAR-3 ovarian
[24] = test system: NCI/ADR-RES ovarian
[25] = test system: UO-31 renal
[26] = test system: SF-539 CNS
[27] = test system: UACC-257 melanoma
[28] = test system: HOP-62 NSCLC
[29] = test system: MDA-MB-435
[30] = test system: DU-145 prostate
[31] = test system: COLO 205 colon
[32] = test system: UACC-62 melanoma
[33] = test system: OVCAR-4 ovarian
[34] = test system: HL-60(TB) leukemia
[35] = test system: SNB-19 CNS
[36] = test system: M14 melanoma
[37] = test system: SF-268 CNS
[38] = test system: IGROV1 ovarian
[39] = test system: KM12 colon
[40] = test system: NCI-H460 lung
[41] = test system: SK-OV-3 ovarian
[42] = test system: NCI-H522 lung
[43] = test system: T-47D breast
[44] = test system: NCI-H23 lung
[45] = test system: OVCAR-8 ovarian
[46] = test system: 786-0 renal
[47] = test system: MDA-MB-231 breast
[48] = test system: TK-10 renal
[49] = test system: OVCAR-5 ovarian
[50] = test system: U251 CNS
[51] = test system: MCF7 breast
[52] = test system: MOLT-4 leukemia
[53] = test system: MALME-3M melanoma
[54] = test system: EKVX NSCLC
[55] = test system: SN12C renal
[56] = test system: PC-3 prostate
[57] = test system: RXF 393 renal

Compound: O=C1c2ccccc2S(=O)(=O)N1CSC(=S)N1CCOCC1
- GI50 [1]: 26.1 µM
- TGI [1]: > 100 µM
- GI50 [2]: > 100 µM
- TGI [2]: > 100 µM
- GI50 [3]: > 100 µM
- TGI [3]: > 100 µM
- GI50 [4]: > 100 µM
- TGI [4]: > 100 µM
- GI50 [5]: > 100 µM
- TGI [5]: > 100 µM
- GI50 [6]: 61.8 µM
- TGI [6]: > 100 µM
- GI50 [7]: > 100 µM
- TGI [7]: > 100 µM
- GI50 [8]: 65.4 µM
- TGI [8]: > 100 µM
- GI50 [9]: > 100 µM
- TGI [9]: > 100 µM
- GI50 [10]: 15.8 µM
- TGI [10]: 51.3 µM
- GI50 [11]: > 100 µM
- TGI [11]: > 100 µM
- GI50 [12]: > 100 µM
- TGI [12]: > 100 µM
- GI50 [13]: 17.4 µM
- TGI [13]: 47 µM
- GI50 [14]: > 100 µM
- TGI [14]: > 100 µM
- GI50 [15]: > 100 µM
- TGI [15]: > 100 µM
- GI50 [16]: 7.9 µM
- TGI [16]: 36.1 µM
- GI50 [17]: 69.1 µM
- TGI [17]: > 100 µM
- GI50 [18]: > 100 µM
- TGI [18]: > 100 µM
- GI50 [19]: > 100 µM
- TGI [19]: > 100 µM
- GI50 [20]: > 100 µM
- TGI [20]: > 100 µM
- GI50 [21]: > 100 µM
- TGI [21]: > 100 µM
- GI50 [22]: 58.1 µM
- TGI [22]: > 100 µM
- GI50 [23]: > 100 µM
- TGI [23]: > 100 µM
- GI50 [24]: > 100 µM
- TGI [24]: > 100 µM
- GI50 [25]: > 100 µM
- TGI [25]: > 100 µM
- GI50 [26]: > 100 µM
- TGI [26]: > 100 µM
- GI50 [27]: > 100 µM
- TGI [27]: > 100 µM
- GI50 [28]: > 100 µM
- TGI [28]: > 100 µM
- GI50 [29]: > 100 µM
- TGI [29]: > 100 µM
- GI50 [30]: > 100 µM
- TGI [30]: > 100 µM
- GI50 [31]: 62.4 µM
- TGI [31]: > 100 µM
- GI50 [32]: > 100 µM
- TGI [32]: > 100 µM
- GI50 [33]: > 100 µM
- TGI [33]: > 100 µM
- GI50 [34]: 4.84 µM
- TGI [34]: 49.9 µM
- GI50 [35]: > 100 µM
- TGI [35]: > 100 µM
- GI50 [36]: 31.1 µM
- TGI [36]: 89.6 µM
- GI50 [37]: > 100 µM
- TGI [37]: > 100 µM
- GI50 [38]: > 100 µM
- TGI [38]: > 100 µM
- GI50 [39]: > 100 µM
- TGI [39]: > 100 µM
- GI50 [40]: 70.1 µM
- TGI [40]: > 100 µM
- GI50 [41]: > 100 µM
- TGI [41]: > 100 µM
- GI50 [42]: 24.8 µM
- TGI [42]: > 100 µM
- GI50 [43]: > 100 µM
- TGI [43]: > 100 µM
- GI50 [44]: > 100 µM
- TGI [44]: > 100 µM
- GI50 [45]: > 100 µM
- TGI [45]: > 100 µM
- GI50 [46]: > 100 µM
- TGI [46]: > 100 µM
- GI50 [47]: > 100 µM
- TGI [47]: > 100 µM
- GI50 [48]: > 100 µM
- TGI [48]: > 100 µM
- GI50 [49]: > 100 µM
- TGI [49]: > 100 µM
- GI50 [50]: > 100 µM
- TGI [50]: > 100 µM
- GI50 [51]: 49 µM
- TGI [51]: > 100 µM
- GI50 [52]: 19 µM
- TGI [52]: > 100 µM
- GI50 [53]: > 100 µM
- TGI [53]: > 100 µM
- GI50 [54]: > 100 µM
- TGI [54]: > 100 µM
- GI50 [55]: > 100 µM
- TGI [55]: > 100 µM
- GI50 [56]: 38.3 µM
- TGI [56]: > 100 µM
- GI50 [57]: > 100 µM
- TGI [57]: > 100 µM
